target: T1, BCL6 (Homo sapiens, UniProt P41182); test: Immunofluorescence high content imaging of BCL6 degradation in T47D cells; format: cell-based; conditions: T47D breast cancer epithelial cells, 3 days incubation
T1 construct: endogenous in cells; host or cells: T47D breast cancer epithelial cells
Method: Immunofluorescence Protocol for High Content Imaging of BCL6
T47D cells were seeded in 100 μl volume of RPMI11640-10% FBS in a 96-well black/clear bottom plates for adherent lines (Corning #3904).
Day 1. T47D breast cancer epithelial cells were seeded at a density so that confluence is ˜70-90% at endpoint. Cells were seeded at 7K/0.1 mL/well the morning prior to the addition of exemplary bifunctional degradation compounds.
Day 2. Prepare an 11 point 3-fold serial dilution of exemplary bifunctional compound in DMSO and aliquot an appropriate volume to cell growth media to generate a 2× final concentration of exemplary bifunctional compound. Add an equal volume (0.1 ml) of 2× exemplary bifunctional compound/media mix to previously plated cells, for a final top concentration in aqueous cell growth media of 0.1 or 1 μM. Incubate for 3 days at 37° C., 5% CO2.
Day 5 Immunofluorescence. Discard cell media. Wash wells with 200 μl of room temperature phosphate-buffered saline (PBS). Prepared 4% paraformaldehyde (PFA) from 16% PFA (Electron Microscopy Sciences #15710) using 1×PBS. Fifty μL of 4% PF was added to each well and incubate for 15 minutes at room temperature to fix the cells. The PFA was aspirated and the cells washed twice with PBS (200 μL)).
Prepared 0.1% Triton X-100 in PBS using 10% triton X-100 stock. The cells were permeabilized by adding 100 μL of the 0.1% Triton X-100 in PBS to each well to permeabilize cells and incubating at room temperature for 15 minutes. Cells were washed twice with PBS.
Prepared 3% BSA/PBS (from Thermofisher #37515 Blocker BSA in TBS, 10%), and 100 μL was added to each well. The cells were incubated for at least 1 hour at room temperature.
Prepared 1% BSA/PBS using Blocker BSA/PBS, and the 3% BSA/PBS removed from the wells.
For no primary antibody controls, 50 μL 1% BSA/PBS was added.
Primary antibody (BCL6 Rb Ab, CST-14895, Cell Signaling) was diluted 1:300 in 1% BSA/PBS using Blocker BSA/PBS.
Fifty μl of primary antibody added to all remaining wells (i.e., all wells other than the primary antibody controls) and the cells were incubated overnight at 4° C. with slow orbital movement.
Day 6. Contents of the wells was removed and the cells washed four times with 200 μL PBS. 1% BSA/PBS was prepared using Blocker BSA in PBS.
Diluted secondary antibody goat anti-Rb IgG Alexa-488 1:1000, and cell mask-Alexa-647 1:3000 in 1% BSA/PBS in the same mix. Add 50 μL to each well and incubate at room temperature for 1 hour in the dark.
Cells were washed three times with 200 μL PBS, and then incubated for 10 minutes with 100 μL Hoechst dye at 1 μg/mL (20 mM stock) to stain cell nuclei. Wells were then washed with 200 μl PBS, and 100 μL of PBS was added to each well and the plate covered plate with a plastic opaque cover. Plates were stored at […] and covered in aluminum foil until imaged.
Plates were equilibrated to room temperature prior to reading. The bottom of the plate was wiped with 70% isopropanol immediately prior to imaging.
Imaging: • 10×, 4 fields/well, include Top hat smoothing in the analysis protocol.
Supplies/Reagents: • 16% paraformaldehyde: Electron Microscopy Sciences #15710 • Hoechst: Thermofisher #62249 • Blocker BSA in PBS, 10%: Thermofisher #37515 • Blocker BSA in TBS, 10%: Thermofisher #37520 • Goat anti-rabbit or mouse AlexaFluor-488: Thermofisher #A11008 • Cell mask deep red AlexaFluor-647: Thermofisher #C10046 • Wash buffer, PBS: 20×PBS, Thermofisher

| Structure (SMILES) | DC50 [nM] | Dmax [%] |
| --- | --- | --- |
| CNC(=O)COc1cc2cc(Nc3nc(N4CCC(O[C@H]5C[C@H](N6CCN(c7ccc8c(c7)n(C7CCC(=O)NC7=O)c(=O)n8C)CC6)C5)CC4)ncc3Cl)ccc2n(C(C)C)c1=O (stereo partly drawn) [Compound 11, 2-({6-[(5-chloro-2-{4-[(1r,3r)-3-{4-[3-(2,6-dioxopiperidin-3-yl)-1-methyl-2-oxo-2,3-dihydro-1H-1,3-benzodiazol-5-yl]piperazin-1-yl}cyclobutoxy]piperidin-1-yl}pyrimidin-4-yl)amino]-2-oxo-1-(propan-2-yl)-1,2-dihydroquinolin-3-yl}oxy)-N-methylacetamide] | 10 to 50 | < 50 |
| CNC(=O)COc1cc2cc(Nc3nc(N4CCC(O[C@H]5C[C@H](N6CCN(c7ccc8c(c7)n(C(C)C)c(=O)n8C7CCC(=O)NC7=O)CC6)C5)CC4)ncc3Cl)ccc2n(C(C)C)c1=O (stereo partly drawn) [Compound 12, 2-({6-[(5-chloro-2-{4-[(1r,3r)-3-{4-[1-(2,6-dioxopiperidin-3-yl)-2-oxo-3-(propan-2-yl)-2,3-dihydro-1H-1,3-benzodiazol-5-yl]piperazin-1-yl}cyclobutoxy]piperidin-1-yl}pyrimidin-4-yl)amino]-2-oxo-1-(propan-2-yl)-1,2-dihydroquinolin-3-yl}oxy)-N-methylacetamide] | < 10 | ≥ 70 |
| CNC(=O)COc1cc2cc(Nc3nc(N4CCC(O[C@H]5C[C@H](N6CCN(c7ccc8c(c7)n(C)c(=O)n8C7CCC(=O)NC7=O)[C@H](C)C6)C5)CC4)ncc3Cl)ccc2n(C(C)C)c1=O (stereo partly drawn) [Compound 13, 2-({6-[(5-chloro-2-{4-[(1r,3r)-3-[(3R)-4-[1-(2,6-dioxopiperidin-3-yl)-3-methyl-2-oxo-2,3-dihydro-1H-1,3-benzodiazol-5-yl]-3-methylpiperazin-1-yl]cyclobutoxy]piperidin-1-yl}pyrimidin-4-yl)amino]-2-oxo-1-(propan-2-yl)-1,2-dihydroquinolin-3-yl}oxy)-N-methylacetamide] | < 10 | ≥ 70 |
| CNC(=O)COc1cc2cc(Nc3nc(N4CCC(O[C@H]5C[C@H](N6CCN(c7cc8c(cn7)n(C7CCC(=O)NC7=O)c(=O)n8C)CC6)C5)CC4)ncc3Cl)ccc2n(C(C)C)c1=O (stereo partly drawn) [Compound 14, 2-({6-[(5-chloro-2-{4-[(1r,3r)-3-{4-[3-(2,6-dioxopiperidin-3-yl)-1-methyl-2-oxo-1H,2H,3H-imidazo[4,5-c]pyridin-6-yl]piperazin-1-yl}cyclobutoxy]piperidin-1-yl}pyrimidin-4-yl)amino]-2-oxo-1-(propan-2-yl)-1,2-dihydroquinolin-3-yl}oxy)-N-methylacetamide] | < 10 | 50 to 70 |
| CNC(=O)COc1cc2cc(Nc3nc(N4CCC(O[C@H]5C[C@H](N6CCN(c7cc8c(cc7OC)n(C7CCC(=O)NC7=O)c(=O)n8C)CC6)C5)CC4)ncc3Cl)ccc2n(C(C)C)c1=O (stereo partly drawn) [Compound 15, 2-({6-[(5-chloro-2-{4-[(1r,3r)-3-{4-[1-(2,6-dioxopiperidin-3-yl)-6-methoxy-3-methyl-2-oxo-2,3-dihydro-1H-1,3-benzodiazol-5-yl]piperazin-1-yl}cyclobutoxy]piperidin-1-yl}pyrimidin-4-yl)amino]-2-oxo-1-(propan-2-yl)-1,2-dihydroquinolin-3-yl}oxy)-N-methylacetamide] | < 10 | 50 to 70 |
| CNC(=O)COc1cc2cc(Nc3nc(N4CCC(O[C@H]5C[C@H](N6CCN(c7cnc8c(c7)n(C)c(=O)n8C7CCC(=O)NC7=O)CC6)C5)CC4)ncc3Cl)ccc2n(C(C)C)c1=O (stereo partly drawn) [Compound 16, 2-({6-[(5-chloro-2-{4-[(1r,3r)-3-{4-[3-(2,6-dioxopiperidin-3-yl)-1-methyl-2-oxo-1H,2H,3H-imidazo[4,5-b]pyridin-6-yl]piperazin-1-yl}cyclobutoxy]piperidin-1-yl}pyrimidin-4-yl)amino]-2-oxo-1-(propan-2-yl)-1,2-dihydroquinolin-3-yl}oxy)-N-methylacetamide] | < 10 | 50 to 70 |
